Laboratory results: PubChem BioAssay AID256 (DTP/NCI, 2004)
Inconclusive results and toxic doses are left out. Rule for the calls: active = survival T/C of 150% or more; inactive = T/C below 125% in these data.

System: CD2F1 mice, L1210 leukemia ip, survival T/C
Experiment: NCI In Vivo Anticancer Drug Screen. Data for tumor model L1210 Leukemia (intraperitoneal) in CD2F1 (CDF1) mice
Details: higher = longer survival
How it was run: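 In this screen, transplantable tumors were grown in mice given either the compound or its vehicle. Results were expressed as the treated measurement relative to the control measurement.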

[1] = endpoint: mean survival time, dose: 50.0 mg/kg/injection, schedule: Q01DX009 (ip), vehicle: other
[2] = endpoint: mean survival time, dose: 100.0 mg/kg/injection, schedule: Q01DX009 (ip), vehicle: other
[3] = endpoint: mean survival time, dose: 200.0 mg/kg/injection, schedule: Q01DX009 (ip), vehicle: other
[4] = endpoint: mean survival time, dose: 100.0 mg/kg/injection, schedule: Q04DX003 (ip), vehicle: saline with Tween-80
[5] = endpoint: mean survival time, dose: 200.0 mg/kg/injection, schedule: Q04DX003 (ip), vehicle: saline with Tween-80
[6] = endpoint: mean survival time, dose: 400.0 mg/kg/injection, schedule: Q04DX003 (ip), vehicle: saline with Tween-80
[7] = endpoint: mean survival time, dose: 100.0 mg/kg/injection, schedule: Q04DX003 (ip), vehicle: saline
[8] = endpoint: mean survival time, dose: 200.0 mg/kg/injection, schedule: Q04DX003 (ip), vehicle: saline
[9] = endpoint: mean survival time, dose: 400.0 mg/kg/injection, schedule: Q04DX003 (ip), vehicle: saline
[10] = endpoint: mean survival time, dose: 100.0 mg/kg/injection, schedule: Q01DX001 (ip), vehicle: saline
[11] = endpoint: mean survival time, dose: 200.0 mg/kg/injection, schedule: Q01DX001 (ip), vehicle: saline
[12] = endpoint: mean survival time, dose: 100.0 mg/kg/injection, schedule: Q01DX009 (ip), vehicle: saline with Tween-80
[13] = endpoint: mean survival time, dose: 200.0 mg/kg/injection, schedule: Q01DX009 (ip), vehicle: saline with Tween-80

Measured: T/C

CNC(=O)Nc1ccc(C(=O)NC(C)C)cc1
inactive: endpoint: mean survival time, dose: 22.0 mg/kg/injection, schedule: Q01DX009 (ip), vehicle: other 93 % of control | endpoint: mean survival time, dose: 33.0 mg/kg/injection, schedule: Q01DX009 (ip), vehicle: other 102 % of control | [1] 94 % of control | [2] 95 % of control | [3] 91 % of control | endpoint: mean survival time, dose: 400.0 mg/kg/injection, schedule: Q01DX009 (ip), vehicle: other 96 % of control | endpoint: mean survival time, dose: 800.0 mg/kg/injection, schedule: Q01DX009 (ip), vehicle: other 100 % of control

[CH3][Sn]1([CH3])[O]C2C(CO)OC(n3ccc4c(N)ncnc43)C2[O]1 (configuration not stated)
inactive: endpoint: mean survival time, dose: 0.78 mg/kg/injection, schedule: Q01DX005 (ip), vehicle: other 111 % of control | endpoint: mean survival time, dose: 1.56 mg/kg/injection, schedule: Q01DX005 (ip), vehicle: other 107 % of control | endpoint: mean survival time, dose: 3.13 mg/kg/injection, schedule: Q01DX005 (ip), vehicle: other 115 % of control

CC[n+]1c(-c2ccccc2)c2cc(N)ccc2c2ccc(N)cc21
inactive: endpoint: mean survival time, dose: 1.0 mg/kg/injection, schedule: Q01DX009 (ip), vehicle: water 106 % of control | endpoint: mean survival time, dose: 2.0 mg/kg/injection, schedule: Q01DX009 (ip), vehicle: water 112 % of control | endpoint: mean survival time, dose: 2.5 mg/kg/injection, schedule: Q01DX005 (ip), vehicle: water 101 % of control | endpoint: mean survival time, dose: 4.0 mg/kg/injection, schedule: Q01DX009 (ip), vehicle: water 116 % of control | endpoint: mean survival time, dose: 5.0 mg/kg/injection, schedule: Q01DX005 (ip), vehicle: water 105 % of control | endpoint: mean survival time, dose: 8.0 mg/kg/injection, schedule: Q01DX009 (ip), vehicle: water 122 % of control | endpoint: mean survival time, dose: 10.0 mg/kg/injection, schedule: Q01DX005 (ip), vehicle: water 114 % of control | endpoint: mean survival time, dose: 16.0 mg/kg/injection, schedule: Q01DX009 (ip), vehicle: water 104 % of control

O=S(=O)(Nc1c(O)ccc2ccccc12)c1ccccc1
inactive: [4] 97 % of control | [5] 97 % of control | [6] 92 % of control

CCCCC=C1CC(C)CCC(C)C1 (configuration not stated)
inactive: [7] 101 % of control | [8] 104 % of control | [9] 104 % of control

O=[N+]([O-])c1ccc(N2N=NC3C4CCC(C4)C32)cc1 (configuration not stated)
inactive: [4] 93 % of control | [5] 91 % of control | [6] 96 % of control

C=C1C=CC1=O
inactive: endpoint: mean survival time, dose: 1.0 micrograms/kg/injection, schedule: Q01DX009 (ip), vehicle: olive oil, sesame oil, peanut oil 97 % of control | endpoint: mean survival time, dose: 1.0 micrograms/kg/injection, schedule: Q01DX009 (ip), vehicle: other 102 % of control | endpoint: mean survival time, dose: 6.0 micrograms/kg/injection, schedule: Q01DX009 (ip), vehicle: olive oil, sesame oil, peanut oil 97 % of control | endpoint: mean survival time, dose: 6.0 micrograms/kg/injection, schedule: Q01DX009 (ip), vehicle: other 103 % of control | endpoint: mean survival time, dose: 10.0 micrograms/kg/injection, schedule: Q01DX009 (ip), vehicle: olive oil, sesame oil, peanut oil 94 % of control | endpoint: mean survival time, dose: 10.0 micrograms/kg/injection, schedule: Q01DX009 (ip), vehicle: other 101 % of control | endpoint: mean survival time, dose: 60.0 micrograms/kg/injection, schedule: Q01DX009 (ip), vehicle: olive oil, sesame oil, peanut oil 96 % of control | endpoint: mean survival time, dose: 60.0 micrograms/kg/injection, schedule: Q01DX009 (ip), vehicle: other 104 % of control | endpoint: mean survival time, dose: 100.0 micrograms/kg/injection, schedule: Q01DX006 (ip), vehicle: other 101 % of control | endpoint: mean survival time, dose: 100.0 micrograms/kg/injection, schedule: Q01DX009 (ip), vehicle: olive oil, sesame oil, peanut oil 97 % of control | endpoint: mean survival time, dose: 100.0 micrograms/kg/injection, schedule: Q01DX009 (ip), vehicle: other 100 % of control | endpoint: mean survival time, dose: 600.0 micrograms/kg/injection, schedule: Q01DX009 (ip), vehicle: olive oil, sesame oil, peanut oil 91 % of control | endpoint: mean survival time, dose: 1000.0 micrograms/kg/injection, schedule: Q01DX009 (ip), vehicle: olive oil, sesame oil, peanut oil 96 % of control

CCCCCC(C)(C)N=C=S
inactive: [4] 100 % of control | [5] 96 % of control

O=P(O)(O)Cc1ccccc1-c1ccccc1
inactive: [10] 93 % of control | [11] 94 % of control | endpoint: mean survival time, dose: 400.0 mg/kg/injection, schedule: Q01DX001 (ip), vehicle: saline 100 % of control

COc1ccc([N+](=O)[O-])cc1NC(=O)Nc1ccccc1Cl
inactive: endpoint: mean survival time, dose: 100.0 mg/kg/injection, schedule: Q04DX002 (ip), vehicle: saline with Tween-80 86 % of control | endpoint: mean survival time, dose: 200.0 mg/kg/injection, schedule: Q04DX002 (ip), vehicle: saline with Tween-80 93 % of control | endpoint: mean survival time, dose: 400.0 mg/kg/injection, schedule: Q04DX002 (ip), vehicle: saline with Tween-80 104 % of control

Cc1cc(=O)cc(C(=O)O)o1
inactive: [1] 107 % of control | [2] 95 % of control | [3] 93 % of control

N#CC(CN1CCOCC1)[N+](=O)[O-] (configuration not stated)
inactive: [12] 95 % of control | [13] 100 % of control | endpoint: mean survival time, dose: 400.0 mg/kg/injection, schedule: Q01DX009 (ip), vehicle: saline with Tween-80 118 % of control

CCNNC(=O)[C@@H]1[C@H](c2cc(OC)c(OC)c(OC)c2)c2cc3c(cc2[C@H](O)[C@H]1CO)OCO3
inactive: endpoint: mean survival time, dose: 7.8 mg/kg/injection, schedule: Q01DX Z (ip), vehicle: saline 100 % of control | endpoint: mean survival time, dose: 15.6 mg/kg/injection, schedule: Q01DX Z (ip), vehicle: saline 96 % of control | endpoint: mean survival time, dose: 31.3 mg/kg/injection, schedule: Q01DX Z (ip), vehicle: saline 103 % of control | endpoint: mean survival time, dose: 62.5 mg/kg/injection, schedule: Q01DX Z (ip), vehicle: saline 111 % of control

O=[N+]([O-])c1ccc(N/N=C/c2ccccn2)cc1
inactive: endpoint: mean survival time, dose: 100.0 mg/kg/injection, schedule: Q04DX003 (ip), vehicle: Klucel (hydroxypropylcellulose) (HPC) 96 % of control | endpoint: mean survival time, dose: 200.0 mg/kg/injection, schedule: Q04DX003 (ip), vehicle: Klucel (hydroxypropylcellulose) (HPC) 89 % of control | endpoint: mean survival time, dose: 400.0 mg/kg/injection, schedule: Q04DX003 (ip), vehicle: Klucel (hydroxypropylcellulose) (HPC) 94 % of control

O=C1OCCC1C(=O)C(O)(C(F)(F)F)C(F)(F)F (configuration not stated)
inactive: endpoint: mean survival time, dose: 100.0 mg/kg/injection, schedule: Q04DX003 (ip), vehicle: other 113 % of control | endpoint: mean survival time, dose: 200.0 mg/kg/injection, schedule: Q04DX003 (ip), vehicle: other 87 % of control | endpoint: mean survival time, dose: 400.0 mg/kg/injection, schedule: Q04DX003 (ip), vehicle: other 107 % of control

C[N+](C)(Cc1ccccc1)c1ccccc1
inactive: endpoint: mean survival time, dose: 10.0 mg/kg/injection, schedule: Q01DX009 (ip), vehicle: saline 109 % of control | endpoint: mean survival time, dose: 20.0 mg/kg/injection, schedule: Q01DX009 (ip), vehicle: saline 94 % of control

Oc1cc(O)c2c(c1)OC(c1ccc(O)c(O)c1)C(OC1(c3cc(O)c(O)c(O)c3)Oc3cc(O)cc(O)c3C(O)C1O)C2 (configuration not stated)
inactive: [7] 109 % of control | [8] 95 % of control | [9] 107 % of control

Cc1ccc2nc(-c3ccc([N+](=O)[O-])cc3)oc(=O)c2c1
inactive: endpoint: mean survival time, dose: 50.0 mg/kg/injection, schedule: Q01DX009 (ip), vehicle: saline with Tween-80 93 % of control | [12] 97 % of control | [13] 93 % of control

O=C(O)c1c(O)cccc1O
inactive: endpoint: mean survival time, dose: 50.0 mg/kg/injection, schedule: Q01DX001 (ip), vehicle: saline 98 % of control | [10] 98 % of control | [11] 101 % of control

O=[N+]([O-])c1ccccc1-c1ccc(Cl)cc1
inactive: endpoint: mean survival time, dose: 100.0 mg/kg/injection, schedule: Q01DX001 (ip), vehicle: saline with Tween-80 88 % of control | endpoint: mean survival time, dose: 200.0 mg/kg/injection, schedule: Q01DX001 (ip), vehicle: saline with Tween-80 91 % of control | endpoint: mean survival time, dose: 400.0 mg/kg/injection, schedule: Q01DX001 (ip), vehicle: saline with Tween-80 92 % of control

COc1cc(/C=C/[N+](=O)[O-])cc(Br)c1OC
inactive: endpoint: median survival time, dose: 6.25 mg/kg/injection, schedule: Q01DX009 (ip), vehicle: saline with Tween-80 103 % of control | endpoint: median survival time, dose: 12.5 mg/kg/injection, schedule: Q01DX009 (ip), vehicle: saline with Tween-80 96 % of control | endpoint: median survival time, dose: 25.0 mg/kg/injection, schedule: Q01DX009 (ip), vehicle: saline with Tween-80 109 % of control

CCCCCCCCCCC(N)C(=O)O (configuration not stated)
inactive: endpoint: mean survival time, dose: 100.0 mg/kg/injection, schedule: Q01DX009 (ip), vehicle: saline 95 % of control | [7] 100 % of control | endpoint: mean survival time, dose: 200.0 mg/kg/injection, schedule: Q01DX009 (ip), vehicle: saline 92 % of control | [8] 97 % of control | endpoint: mean survival time, dose: 400.0 mg/kg/injection, schedule: Q01DX009 (ip), vehicle: saline 95 % of control | [9] 96 % of control
